US11845770B2, “Ascaroside derivatives and methods of use” (California Institute of Technology, priority 2019, dated 2023)

Experiments:
Format in all cases: in vitro ADME
[1] = Stability in hepatocytes (mouse); details: cryopreserved mouse hepatocytes (suspension)
Protocol: 10 mM of 1 was provided as a 1000× stock solution in dimethylsulfoxide (DMSO), and the stock solution was diluted to 1 mM with DMSO in 96-well plates. 30 mM of positive compounds (7-ethoxycoumarin and 7-hydroxycoumarin) were provided as a 1000× stock solution in DMSO, and the stock solution was diluted to 3 mM with DMSO in 96-well plates. 20 μL of 1000× stock solution of each compound were pipetted and was mixed with 380 μL of 45% MeOH/H2O to obtain 50 μM of 1 and 150 μM of the positive control compound solutions to form 50× intermediate solutions. 20 μL of 50× intermediate solution of each compound were pipetted and was mixed with […] of pre-warmed incubation medium to obtain 5 μM of 1 and 15 μM of the positive control compound solutions to form 5× working solutions. The incubation medium was Williams' Medium E (no phenol red) containing 2 mM L-glutamine and 25 mM HEPES. 10 μL of 5× working solutions of each compound were pipetted into appropriate wells in a 96-well plate for time points of 0 minutes, 15 minutes, 30 minutes, 60 minutes, and 90 minutes in duplicates. The plates with compounds were kept warm in an incubator at 37° C.
A cell suspension was prepared by thawing cryopreserved cells, isolating the cells, and suspending the cells in thawing medium. […]
The remaining percentage of 1 after incubation was calculated according to the following equation. […]

[2] = Stability in plasma (mouse); details: after 120 minutes, 37° C.
Protocol: The pH of plasma was adjusted to 7.4±0.1 if required. 1 mM intermediate solution was prepared by diluting 10 μL of the 10 mM stock solution of 1 with 90 μL DMSO; 1 mM intermediate of positive control propantheline bromide was prepared by diluting 10 μL of the stock solution with 90 μL ultra-pure water. 100 μM dosing solution was prepared by diluting 10 μL of the 1 mM intermediate solution with 90 μL of 45% MeOH/H2O. 98 μL of blank plasma was spiked with 2 μL of the 100 μM dosing solution to achieve a final concentration of 2 μM of the compound in duplicate. Samples were incubated at 37° C. in a water bath. At each time point (0, 10, 30, 60 and 120 min), 400 μL of stop solution (200 ng/mL tolbutamide plus 200 ng/mL labetalol in 50% ACN/MeOH) was added and was mixed thoroughly to precipitate protein. Sample plates were centrifuged at 4,000 rpm for 10 min. An aliquot of supernatant (100 μL) was transferred from each well and was mixed with 200 μL ultra-pure water. The samples were shaken at 800 rpm for about 10 min before LC/MS/MS analysis.
The remaining percentage of compound 1 (test article) after incubation was calculated according to the following equation.

[3] = Plasma protein binding, HT-Dialysis (rat); details: pH 7.4, dialysis 4 hours, read-out: percent unbound
Protocol: HT-Dialysis plate (Model HTD 96 b, Cat #1006) and the dialysis membrane (molecular weight cut off 12-14 KDa, Cat #1101) can be purchased from HT Dialysis LLC (Gales Ferry, CT).
The plasma was thawed under running cold tap water and centrifuged at 3220×g for 5 min to remove any clots. The pH value was checked and recorded. Only plasma within range of pH 7.0 to pH 8.0 was used. The dialysis membrane was pretreated according to the manufacturer's instructions. Briefly, the dialysis membrane strips were soaked in ultra-pure water at room temperature for approximately 1 hr. After that, each membrane strip that contained 2 membranes was separated and soaked in ethanol:water (20:80 v:v) for approximately 20 min. The membrane was rinsed and soaked for 20 min in ultra-pure water.
Aliquots of 50 μL loading plasma (matrix) containing compound 1 or warfarin in triplicate were transferred to the appropriate wells of a sample collection plate. The samples were matched with dialysis buffer to obtain a final volume of 100 μL with a volume ratio of plasma (matrix):dialysis buffer (1:1, v:v) in each well. […]
The % Unbound, % Bound, % Recovery and % Remaining were calculated using the following equations: % Unbound=100×F/T % Bound=100−% Unbound % Recovery=100×(F+T)/T0 • F=the compound 1 concentration on the receiver side of the membrane/Correction Factor. […]

With C[C@H](CC/C=C/C(=O)O)O[C@@H]1O[C@@H](C)[C@H](O)C[C@H]1O [ascr #7, reference compound] the half-life at 1 µM [1] was over 3.61 h, the “remaining percentage after incubation” value [2] was 103.4% and the fraction unbound at 4 h [3] was 0.946.
